Source: patent US20120329815A1, “Famciclovir for the Treatment of Recurrent Herpes Labialis using a One-Day Treatment” (priority 2005, published 2012)

How the values were obtained:
[1] = tested on: recurrent herpes labialis; settings: 500 mg three times a day for five days; immunocompetent adult patients; cited from earlier work
[2] = tested on: recurrent herpes labialis; assay: Study 2403: randomized, double-blind, placebo-controlled trial of patient-initiated one-day therapy, efficacy; type: in vivo, human; settings: for Hazard ratio vs placebo, time to healing of all (non-aborted and aborted) lesions / Proportion of patients with aborted lesions / Time to healing of all (non-aborted and aborted) lesions (median): ITT; for Time to healing of all (non-aborted and aborted) lesions (median): aborted lesions assigned time zero
From the text: This study design is a parallel-group, double-blind, double-dummy, randomized placebo-controlled trial of patient initiated therapy in adult immunocompetent patients with recurrent herpes labialis.
Adult immunocompetent patients with a history of recurrent herpes labialis and at least three episodes in the previous 12 months are selected. These patients have a history of prodromal symptoms preceding at least 50% of their herpes labialis episodes and a history of vesicular lesions occurring in at least 50% of those episodes.
After screening, a total of 900 eligible patients are randomly assigned to one of three treatment groups and are dispensed study medication. The overall assignment ratio is 1:1:1. Patients are instructed to initiate treatment within one hour of the first prodromal symptom without any clinical signs of a recurrent episode of herpes labialis.
Group 1, famciclovir 1500 mg daily (1500 mg po followed by placebo 12 hours later)
Group 2, famciclovir 1500 mg daily (750 mg po b.i.d.) or
Group 3, matching placebo capsules (po b.i.d.).
The criteria for evaluation include the primary efficacy variable and secondary efficacy variables. The primary efficacy variable is the investigator-assessed time to healing (re-epithelialization) of the non-aborted primary lesion complex, defined as the time from start of treatment until loss of crust (erythema may have been present). Secondary efficacy variables include time to healing of all non-aborted lesions (primary lesion complex and secondary lesions), time to healing of all lesions (non-aborted and aborted; latter assigned a time to healing of zero), and proportion of patients with aborted lesions.
Lesion healing for vesicular lesions is defined as loss of crust, although erythema may still be present. At each visit starting with Visit 2, the investigator makes assessments based on both the investigator examination of the current visit and patient diary entries since the previous visit. If healing is confirmed, the time of healing is defined as the earliest time it was reported and continuously maintained in the diary. This convention applies to the assessment of both the primary lesion complex and all vesicular lesions.
The Kaplan-Meier method is used to estimate the distribution of time to healing for each treatment group and the median time to healing. Estimated survival curves are plotted. The 95% confidence intervals for the median times to healing are constructed based on the first-order Taylor series approximation of their standard errors using the standard errors of the estimated survival functions. The 95% confidence intervals for between-treatment median differences are constructed using standard errors.
The overall distribution of the time to healing will be compared among treatment groups using the proportional hazards model, with treatment and center as the explanatory, variables. The Efron approximate likelihood method will be used for resolution of ties. Confidence intervals for the hazard ratios will be provided.
Variable 1, the primary efficacy variable, is the investigator-assessed time to healing of the primary lesion complex, defined as the time from start of treatment until loss of crust (for vesicular (classical) lesions progressing through the vesicle/ulcer stage only, erythema is allowed).
The primary efficacy variable, investigator-assessed time to healing of the primary lesion complex, is analyzed over the modified ITT population in two approaches: the primary estimation is based on the Kaplan-Meier method, and statistical testing is based on the proportional hazards model.
Secondary efficacy variables include variables 2-7. Variable 2 is the time to healing (lost of crust) of the primary lesion complex (non-vesicular lesions will be assigned a time of zero). Variable 3 is the time to healing (loss of crust) of all vesicular lesions (non-vesicular lesions will be assigned a time of zero). […]

[3] = Study 2403: safety and tolerability evaluation; type: in vivo, human; settings: high-dose one-day treatment (750 mg b.i.d. or 1,500 mg q.d.), immunocompetent patients
From the text: The assessment of safety is based mainly on the frequency of adverse events. Adverse events are summarized by presenting, for each treatment group, the number and percentage of patients having any adverse event, having an adverse event in each body system and having each individual adverse event. Any other information collected (e.g., severity or relatedness to study medication) will be listed as appropriate.
The safety and ITT populations include all randomized patients who are exposed to (take any) study medication. Using the above definitions, the safety and ITT populations comprise the same patients. For compatibility with the standard presentations, all safety summaries are referenced using the Safety population while appropriate efficacy summaries (for secondary parameters involving both vesicular and non-vesicular lesions) are referenced using the ITT population.

herpes labialis = settings: 2,000 mg twice a day for one day; immunocompetent adult patients; cited from earlier work
[4] = tested on: orolabial herpes infection; settings: 200 mg or 400 mg five times a day for five days; cited from earlier work
[5] = 750 mg b.i.d. for one day, Modified ITT
[6] = 750 mg b.i.d. for one day, Per Protocol
[7] = 1500 mg q.d. single dose, Modified ITT
[8] = 1500 mg q.d. single dose, Per Protocol

Structure (SMILES): CC(=O)OCC(CCn1cnc2cnc(N)nc21)COC(C)=O [Famciclovir, 9-(4-acetoxy-3-acetoxymethylbut-1-yl)-2-aminopurine]
- Size of lesions as compared to placebo [1]: reduction of the size of lesions
- Time to healing as compared to placebo [1]: shorter time to healing
- Hazard ratio vs placebo, time to healing of all (non-aborted and aborted) lesions ([2]; 750 mg b.i.d. for one day): 1.39
- Proportion of patients with aborted lesions ([2]; 750 mg b.i.d. for one day): 29%
- Time to healing of all (non-aborted and aborted) lesions (median) ([2]; 750 mg b.i.d. for one day): 3.0 days
- Hazard ratio vs placebo, time to healing of all non-aborted (primary and secondary) lesions [2, 5]: 2.06
- Hazard ratio vs placebo, time to healing of primary lesion complex [2, 5]: 2.05
- Time to healing of all non-aborted (primary and secondary) lesions (median) [2, 5]: 4.1 days
- Time to healing of primary lesion complex (median) [2, 5]: 4.0 days
- Hazard ratio vs placebo, time to healing of primary lesion complex [2, 6]: 2.06
- Time to healing of primary lesion complex (median) [2, 6]: 4.0 days
- Hazard ratio vs placebo, time to healing of all (non-aborted and aborted) lesions ([2]; 1500 mg q.d. single dose): 1.34
- Proportion of patients with aborted lesions ([2]; 1500 mg q.d. single dose): 33%
- Time to healing of all (non-aborted and aborted) lesions (median) ([2]; 1500 mg q.d. single dose): 2.9 days
- Hazard ratio vs placebo, time to healing of all non-aborted (primary and secondary) lesions [2, 7]: 1.71
- Hazard ratio vs placebo, time to healing of primary lesion complex [2, 7]: 1.64
- Time to healing of all non-aborted (primary and secondary) lesions (median) [2, 7]: 4.5 days
- Time to healing of primary lesion complex (median) [2, 7]: 4.4 days
- Hazard ratio vs placebo, time to healing of primary lesion complex [2, 8]: 1.71
- Time to healing of primary lesion complex (median) [2, 8]: 4.4 days
- Safety and tolerability [3]: safe, well-tolerated
- Safety and tolerability ([3]; listed as FCV): well tolerated and as safe as placebo

Structure (SMILES): CC(C)[C@H](N)C(=O)OCCOCn1cnc2c(=O)[nH]c(N)nc21 [Valacyclovir]
- Median time to healing of lesions as compared to placebo (herpes labialis): reduced by approximately one day

Structure (SMILES): Nc1nc2c(ncn2COCCO)c(=O)[nH]1 [acyclovir]
- Time to healing of vesicular lesions and pain [4]: significant but limited reduction
